Laboratory results as given in US9623030B2, “Tumescent antibiotic solution” (priority 2004, dated 2017).
≈ marks a conversion by molar mass, not a printed value. Values belong to the compound of their own block, whether it stands above or below them.

Columns and labels:
[1] = system: Staphyloccus aureus (MRSA) ATCC 33592; assay: Minimum Inhibitory Concentration (MIC) by dilution; conditions: Staphylococcus aureus, read-out: MIC
[2] = cited from earlier work
platelet aggregation = conditions: cited from earlier work
S. aureus = conditions: effect increases with greater duration of exposure; cited from earlier work
[3] = female, human, in vivo
Experimental: A clinical pharmacologic investigation was conducted to compare the pharmacokinetic advantages of two modes of systemic antibiotic delivery, Tumescent antibiotic delivery (TAD), which involves the delivery of a relatively large volume of an antibiotic-containing solution to the subcutaneous compartment, and intravenous antibiotic delivery (IVAD), which results in direct delivery of antibiotics to the blood stream, for prophylaxis of SSI.
With Institutional Review Board (IRB) approval, the absorption pharmacokinetics of tumescent antibiotic delivery (TAD) and intravenous antibiotic delivery (IVAD) were tested in human subjects and the antibiotic delivery modes were evaluated with respect to the area under the curve (AUC) of antibiotic concentration as a function of time and peak antibiotic concentration (Cmax) in serum and TISF. 4 female subjects participated in at least one study, one subject volunteered for 2 separate studies. 5 studies were conducted: 3 involved TAD to the abdomen, 1 involved TAD to the hips and outer thighs and 1 involved TAD to the breasts. […] Each of the 5 studies consisted of 2 to 3 pharmacokinetic procedures, for a total of 14 procedures. Any procedures conducted on an individual subject were separated by at least one week. In 13 procedures only IVAD or TAD, was used. […]

[4] = 1 gm given at the end of the surgery; 405 abdominal surgery patients; cited from earlier work

SMILES: Cc1nnc(SCC2=C(C(=O)O)N3C(=O)[C@@H](NC(=O)Cn4cnnn4)[C@H]3SC2)s1 [Cefazolin]
MIC [1]: 125 to 250 µg/mL (≈ 275 to 550 µM)

SMILES: CCN(CC)CC(=O)Nc1c(C)cccc1C [Lidocaine]
maximum safe mg/kg dosage of tumescent lidocaine (estimated) ([2]; adults, TLA without liposuction): 30 mg/kg | dosage limitation approved by the FDA for infiltration local anesthesia ([2]; commercial lidocaine (1%) with epinephrine (1:100,000)): 7 mg/kg | duration of local anesthesia ([2]; routine local anesthesia): 2 h | lidocaine concentration consistently inhibiting in-vitro platelet aggregation (platelet aggregation; aggregation induced by ADP, epinephrine and collagen): ≥ 0.5 mg/mL | effect on platelet aggregation (platelet aggregation; safe systemic concentrations (≦6 micrograms/ml)): no effect | bactericidal effect in vitro (S. aureus): bactericidal

interval in which serum concentration of metronidazole exceeded 4 μg/ml [3]: 0 to 12 h
SMILES: Cc1ncc([N+](=O)[O-])n1CCO [Metronidazole]

SMILES: O=C(Cc1cccs1)N[C@@H]1C(=O)N2C(C(=O)[O-])=C(C[n+]3ccccc3)CS[C@H]12 [cephaloridine]
incidence of wound infection, intravenous vs intra incisional [4]: no significant difference
